Test results taken from patent US20240109843A1, “BENZALDEHYDE COMPOUNDS WITH DIRECT POLYMER DESTABILIZING EFFECTS TO TREAT SICKLE CELL DISEASE” (VIRGINIA COMMONWEALTH UNIVERSITY, priority 2018, published 2024).

How the values were obtained:
intracellular Hb = target: T1, intracellular Hb (Mus musculus, UniProt P01942); test: In vivo modification of intracellular Hb in wild-type mice; design: species or system C57BL/6 mice; conditions: IP 150 mg/kg, 30% PEG300, 6 h
T1 construct: from tissue; host or cells: blood (red cell lysates) of dosed C57BL/6 mice
T1 sequence (P01942 2-142 limits assumed): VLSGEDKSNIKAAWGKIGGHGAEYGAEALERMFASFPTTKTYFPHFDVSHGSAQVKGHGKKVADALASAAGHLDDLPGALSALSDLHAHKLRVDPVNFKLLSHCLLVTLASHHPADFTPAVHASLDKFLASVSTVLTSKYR
T1 sequence (P02088 2-147 partner limits assumed): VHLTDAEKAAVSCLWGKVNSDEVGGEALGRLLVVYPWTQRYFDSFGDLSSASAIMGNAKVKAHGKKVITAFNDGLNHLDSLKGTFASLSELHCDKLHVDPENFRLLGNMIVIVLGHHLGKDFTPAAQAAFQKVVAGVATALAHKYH
Procedure: We tested in vivo pharmacologic (pharmacodynamics) effects of select PP compounds in C57BL/6 mice. The animals were treated with a single intraperitoneal (IP) (150 mg/kg body weight) dose of PP6, PP10, PP14, and TD7, which were formulated with 30% PEG300. Blood samples were obtained prior to treatment (0) and 1, 3 and 6 h post-treatment, via submandibular bleeding, and subjected to hemolysis using standard methods. Clarified lysates, free of cell debris and red blood cell ghosts were analyzed by cation-exchange HPLC to determine the levels of drug-modified hemoglobin (adducts); and to conduct oxygen equilibrium studies to determine degrees of shift in p50 values using methodologies described earlier for in vitro studies on human samples. In a subsequent follow-up experiment, a new excipient obtained from Catalent Pharma Solutions was also used to formulate PP14 and used for a single intraperitoneal (IP) and oral (150 mg/kg body weight) dose. Blood samples were obtained prior to treatment (0) and 1, 3 or 5 h post-treatment, via submandibular bleeding, and used to determine the levels of drug-modified hemoglobin (adducts); and to conduct oxygen equilibrium studies to determine degrees of shift in p50 values as described above.

sickle Hb = target: T2, sickle Hb (Homo sapiens, UniProt P69905); test: Oxygen equilibrium (P50 shift) of lysates from treated sickle blood; assay type: cell-based; conditions: 0.5, 1 and 2 mM, SS blood
T2 construct: Blood suspensions from subjects with homozygous SCD; from tissue; host or cells: blood suspensions (20% hematocrit) from donors with homozygous SCD; lysates of the treated red cells
T2 sequence (P69905 2-142 limits assumed): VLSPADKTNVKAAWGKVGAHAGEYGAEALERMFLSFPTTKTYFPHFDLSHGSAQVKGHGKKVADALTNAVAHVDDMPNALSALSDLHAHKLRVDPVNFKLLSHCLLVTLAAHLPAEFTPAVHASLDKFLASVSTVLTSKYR
Procedure: (§1) Blood suspensions from subjects with homozygous SCD (resuspended in Hemox™ buffer to a final hematocrit 20%) were incubated under air in the absence or presence of the compounds (0.5 mM, 1 mM and 2 mM) at 37° C. for 1 h to ensure that binding had attained equilibrium. The suspensions were then incubated under hypoxic conditions (2.5% oxygen/97.5% nitrogen) at 37° C. for 1 h. Aliquot samples were fixed with 2% glutaraldehyde solution without exposure to air, and then subjected to microscopic morphological analysis of bright field images (at 40× magnification) of single layer cells on an Olympus BX40 microscope fitted with an Infinity Lite B camera (Olympus), and the coupled Image Capture software. The residual samples were washed in phosphate-buffer saline, and hemolyzed in hypotonic lysis buffer for subsequent Hb-modification and oxygen equilibrium analyses.
For oxygen equilibrium studies, approximately 100 μL aliquot samples from the above clarified lysate were added to 4 mL of 0.1M potassium phosphate buffer, pH 7.0, in cuvettes and subjected to hemoximetry analysis using a Hemox™ Analyzer (TCS Scientific Corp.) to assess P50 shifts. Degree of P50 shift (ΔP50) was expressed as percentage fractions of control DMSO-treated samples.

Hb [1] = target: T3, Hb (Homo sapiens, UniProt P69905); test: Oxygen equilibrium curve (OEC) studies with normal whole blood; assay type: cell-based; design: Hemoglobin modification, studies using non-sickling AA blood; from tissue; host or cells: non-sickling (AA) human blood, red blood cells; conditions: normal whole blood, 0.5, 1, 2 mM
Procedure: Oxygen equilibrium curve (OEC) studies to determine the effect of the compounds on Hb affinity for oxygen were conducted following standard procedure. Whole blood (30% hematocrit) was incubated in the absence or presence of compounds (0.5 mM, 1.0 mM and 2.0 mM) solubilized in DMSO. […] After equilibration, the sample was removed via syringe and aspirated into an ABL 700 series table top automated blood gas analyzer (Radiometer America, Inc., Westlake, OH) to determine total hemoglobin (tHb), hematocrit (Hct), pH, pCO2, partial pressure of oxygen (pO2), and the Hb-O2 saturation (sO2) values. The measured values of pO2 and sO2 at each oxygen saturation level were then subjected to nonlinear regression analysis using the software Scientist (Micromath, Salt Lake City UT) with the following equation: […]
Aromatic aldehydes are known to prevent hypoxia-induced Hb S polymerization by increasing the Hb affinity for oxygen. We therefore tested the PP compounds in a dose-dependent manner (0.5, 1, 2 mM) for their effect on Hb oxygen binding property. […] These findings confirmed that the potent in vitro activity previously seen in TD7 was at least conserved in the novel PP compounds.
Target sequence in this assay (P69905 2-142 limits assumed): as above
Target sequence in this assay (P68871 2-147 partner limits assumed): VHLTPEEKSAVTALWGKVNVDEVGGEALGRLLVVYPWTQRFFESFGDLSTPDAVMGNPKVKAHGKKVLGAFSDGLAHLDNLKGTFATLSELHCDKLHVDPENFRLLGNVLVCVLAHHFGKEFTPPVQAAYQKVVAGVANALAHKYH

sickle red blood cells = test: Antisickling study with human sickle blood under 2.5% oxygen; assay type: cell-based; conditions: Homo sapiens, Erythrocyte, sickle RBCs, 2.5% oxygen, read-out: sickling inhibition; for inhibition at 500 µM: 0.5 mM; for inhibition at 1000 µM: 1 mM
Procedure: as §1
The studies described above were conducted using normal whole blood. Next, we investigated whether the improvement in Hb oxygen affinity and the compounds sustained activity also translated to similar effects in SS blood from SCD patients. […] At 1 mM, PP8 and PP9 inhibited nearly 100% of sickling, while PP2, PP6, PP14 inhibited sickling by more than 70%. […] It is clear that the modifications of the present compounds has led to significant improvement in antisickling activity.

Hb [2] = target: T3, Hb; test: Drug partitioning studies, fixed and unfixed Hb adducts in non-sickling AA blood; assay type: cell-based; design: Hemoglobin modification, studies using non-sickling AA blood; from tissue; host or cells: non-sickling (AA) human blood, red blood cells; conditions: 2 mM; for Fixed Adducts (%) / Unfixed Adduct (%): 6 biological replicates; for Partitioning Ratio (%): fixed relative to unfixed adducts
Procedure: RBC partitioning studies were conducted both for SS RBCs following sickling studies above, or as separate independent studies with non-sickle blood. Briefly, aliquots of blood samples, which had been incubated with test molecules, were lysed either in deionized water (un-fixed), or in water containing 50 mM sodium borohydride (fixed). Samples were subjected to cation exchange HPLC analyses, as described above. Modified […] (Hb adducts) was determined as a proportion of total Hb in each sample, and partitioning ratio was determined as the relative fraction of Hb modification of fixed samples compared to corresponding non-fixed samples. The partitioning ratio is the relative fraction of Hb that was modified intracellularly by molecules that permeated the RBC membrane, as compared to unfixed adducts which reflect Hb binding without RBC membrane permeation.
Target sequence in this assay (P69905 2-142 limits assumed): as the sequence (P69905 2-142 limits assumed) above
Target sequence in this assay (P68871 2-147 partner limits assumed): as the sequence (P68871 2-147 partner limits assumed) above

[3] = tested on: RBCs from donors with homozygous SCD; test: Oxygen-independent sickle inhibition in SS blood suspensions under anoxia (100% nitrogen); assay type: cell-based, human; conditions: anoxia
Procedure: To establish oxygen-independent sickle inhibition, the incubation chamber was subsequently opened and exposed to room air for 15 minutes to ensure complete re-oxygenation and reversal of the sickled cells to normal round cells. Reversal was confirmed by microscopy. The incubation chamber was then closed, and the assay was repeated with incubation in 100% nitrogen gas for 1 hour (for screening), or up to 2.5 h (for time-course studies), with collection and fixation of blood aliquots at defined intervals. Aliquot samples were again subjected to microscopic morphological analysis of bright field images to identify the proportion of sickled and non-sickled cells, and sickle inhibition calculated.

Hb [4] = target: T3, Hb; test: Hb modification (drug-adduct formation) in SS blood suspensions by cation-exchange HPLC; assay type: binding; design: Blood suspensions from subjects with homozygous SCD; from tissue; host or cells: blood suspensions (20% hematocrit) from donors with homozygous SCD; lysates of the treated red cells; conditions: 2 mM, 4 biological replicates
Procedure: All compounds (Comp 1-13) and comparator molecules (VZHE-039, PP-14, INN-310, and Voxelotor) were evaluated following established procedures. Blood samples from individual donors with homozygous SCD (obtained with informed consent) were diluted using Hemox buffer solution with the addition of glucose (10 mM) and BSA (0.2%) to adjust hematocrit of the blood suspensions to 20%, which standardizes the procedure to normalize the ratio of RBCs to drug, for assay consistency and reproducibility. Briefly, blood suspensions were incubated under room air in the presence of various concentrations of test compounds (0-2 mM) at 37° C. for 1 hour in 96-well round bottom plates. Subsequently, the suspensions were incubated with a hypoxic gas mixture (2.5% Oxygen gas/balance Nitrogen gas) at 37° C. for up to 2 hours prior to fixation with 2% glutaraldehyde solution without exposure to air. The fixated blood aliquots were evaluated by microscopic morphological analysis (image analysis on Image J software) to identify the proportion of sickled and non-sickled RBCs, and sickle inhibition calculated based on the % change from negative control (DMSO).
The residual samples were then washed in phosphate-buffered saline, and hemolyzed in hypotonic lysis buffer, with or without sodium borohydride (50 mM). Aliquots obtained from the lysates with or without sodium borohydride (to reduce Schiff base adducts) were also assessed for level of Hb modification (drug-adduct formation) by cation-exchange HPLC (Hitachi D-7000 Series, Hitachi Instruments, Inc., San Jose, CA) with a weak cation-exchange column (Poly CAT A: 50 mm×4.6 mm, Poly LC, Inc., Columbia, MD). Hemoglobin isotype peaks are eluted with a linear gradient of phase B from 0% to 80% at A410 nm (Mobile Phase A: 40 mM Bis-Tris, 2 mM KCN, pH 6.9; Phase B: 40 mM Bis-Tris, 2 mM KCN, 0.2 M sodium chloride, pH 6.55). Clarified lysate from normal human adult […] (Hb A), as well as commercial standards containing approximately equal amounts of Hb F, A, S and C (Helena Laboratories, Beaumont, TX), were utilized as reference isotypes. Reduced samples were used to assess “fixed adduct” formation (dependent on RBC membrane permeability), whereas non-reduced samples assessed drug-adduct formation independent of drug permeability.
Target sequence in this assay (P69905 2-142): as the sequence (P69905 2-142 limits assumed) above
Target sequence in this assay (P68871 with tags, fused parts or gaps E7V partner): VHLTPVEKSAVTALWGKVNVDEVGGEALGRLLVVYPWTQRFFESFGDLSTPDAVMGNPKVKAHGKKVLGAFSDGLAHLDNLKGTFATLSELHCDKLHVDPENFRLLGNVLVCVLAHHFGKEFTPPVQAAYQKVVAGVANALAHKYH

Compound	modified Hb (intracellular Hb) [%]	increase of Hb affinity for oxygen in sickle blood (in words) (sickle Hb)	effect on Hb oxygen binding property (OEC) (Hb [1])	inhibition at 500 µM (sickle red blood cells) [%]	inhibition at 1000 µM (sickle red blood cells) [%]	Fixed Adducts (%) (Hb [2])	Unfixed Adduct (%) (Hb [2])	Partitioning Ratio (%) (Hb [2])	polymer destabilizing effect / sickle inhibition in anoxia (in words) [3]	Hb Modification (%) (Hb [4])
COC(=O)c1cccnc1COc1cccc(O)c1C=O [PP6, Methyl 2-((2-formyl-3-hydroxyphenoxy)methyl)nicotinate]	16.9±1.4	only marginally increasing Hb affinity for oxygen	most significant activities	> 35	> 70					
COc1ccc(OCc2ccccn2)c(C=O)c1 [INN-310, reference compound]						82.0 ± 3.1	79.7 ± 4.3	103.0 ± 1.7	only weak potency in anoxia	65.7 ± 6.0
COC(=O)c1cccc(COc2ccc(OC)cc2C=O)n1 [PP3, Methyl 6-((2-formyl-4-methoxyphenoxy)methyl)picolinate]		only marginally increasing Hb affinity for oxygen								
O=Cc1c(F)cc(F)cc1OCc1ccccn1 [Comp 9, 2,4-difluoro-6-(pyridin-2-ylmethoxy)benzaldehyde]						72.7 ± 4.1	69.4 ± 7.5	105.2 ± 5.9	completely negates the polymer destabilization effects	69.1 ± 11.8
COC(=O)c1cccnc1COc1ccc(OC)cc1C=O [PP2, Methyl 2-((2-formyl-4-methoxyphenoxy)methyl)nicotinate]		only marginally increasing Hb affinity for oxygen	most significant activities	> 35	> 70					
O=Cc1c(F)cc(F)cc1OCc1ncccc1F [Comp 13, 2,4-difluoro-6-((3-fluoropyridin-2-yl)methoxy)benzaldehyde]						80.7 ± 4.8	78.4 ± 6.1	103.0 ± 2.9	completely negates the polymer destabilization effects	79.1 ± 10.3
COC(=O)c1ncccc1COc1ccc(OC)cc1C=O [PP8, Methyl 3-((2-formyl-4-methoxyphenoxy)methyl)picolinate]		only marginally increasing Hb affinity for oxygen		> 35	~100					
COC(=O)c1ccc(COc2ccc(OC)cc2C=O)nc1 [PP9]		only marginally increasing Hb affinity for oxygen	most significant activities		~100					
